Experimental data taken from PMC4300400, “Comparative biochemical analysis of three members of the Schistosoma mansoni TAL family: Differences in ion and drug binding properties” (Biochimie, 2015).
Counter-ions that a name gives are not always drawn.

Experiments:
[1] = target: T1, SmTAL1 (Sm22.6) (Schistosoma mansoni, UniProt P14202); assay: differential scanning fluorimetry (Sypro Orange); assay type: binding; conditions: 250 µM; 0.25 mM drug, 5 μM protein, 1% DMSO, 0.8 mM CaCl2, 50 mM Hepes pH 7.5, 150 mM NaCl; absolute Tm, not a shift (DMSO control in the 1st table, row 5)
T1 construct: gene A12; recombinant, E. coli, N-terminal GST fusion cleaved with thrombin; EF-hand N-terminal plus DLC-like C-terminal domain; dimer
T1 sequence (P14202 1-190): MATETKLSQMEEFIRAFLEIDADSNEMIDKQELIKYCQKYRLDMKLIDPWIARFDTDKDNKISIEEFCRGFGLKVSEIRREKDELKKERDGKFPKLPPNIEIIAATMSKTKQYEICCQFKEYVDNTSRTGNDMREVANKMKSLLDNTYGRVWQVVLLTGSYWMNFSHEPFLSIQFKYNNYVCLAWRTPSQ
Source text: differential scanning fluorimetry (Sypro Orange) on SmTAL1 (Sm22.6)

[2] = target: T2, SmTAL3 (Sm20.8) (Schistosoma mansoni, UniProt P91804); assay: differential scanning fluorimetry (Sypro Orange); assay type: binding; conditions: 250 µM; 0.25 mM drug, 7 μM protein, 1% DMSO, 0.8 mM CaCl2, 50 mM Hepes pH 7.5, 150 mM NaCl; absolute Tm, not a shift (DMSO control in the 1st table, row 5)
T2 construct: gene Sm 20.8; recombinant, E. coli, N-terminal GST fusion cleaved with thrombin; EF-hand-like N-terminal plus DLC-like C-terminal domain; dimer and higher oligomers
T2 sequence (P91804 1-181): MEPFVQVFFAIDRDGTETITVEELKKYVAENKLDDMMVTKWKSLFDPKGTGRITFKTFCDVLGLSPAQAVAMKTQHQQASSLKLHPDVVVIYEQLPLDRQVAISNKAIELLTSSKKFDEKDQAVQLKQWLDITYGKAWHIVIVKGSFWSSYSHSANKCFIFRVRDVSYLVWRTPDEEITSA
Source text: differential scanning fluorimetry (Sypro Orange) on SmTAL3 (Sm20.8)

[3] = target: T3, SmTAL2 (Sm21.7) (Schistosoma mansoni, UniProt P32070); assay: limited proteolysis protection (trypsin, chymotrypsin); assay type: binding; conditions: 250 μM drug, 10 μM protein, 1% DMSO, 0.8 mM CaCl2, 37 °C
T3 construct: recombinant, E. coli, N-terminal GST fusion cleaved with thrombin; EF-hand N-terminal plus DLC-like C-terminal domain; dimer
T3 sequence (P32070 1-184): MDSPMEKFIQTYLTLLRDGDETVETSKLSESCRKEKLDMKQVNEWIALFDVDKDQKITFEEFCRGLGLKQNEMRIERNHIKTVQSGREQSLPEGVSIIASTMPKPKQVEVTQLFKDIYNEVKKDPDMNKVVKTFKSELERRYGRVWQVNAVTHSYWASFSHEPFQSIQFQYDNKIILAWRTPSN

[4] = target: SmTAL3 (Schistosoma mansoni tegumental allergen-like protein 3) (Schistosoma mansoni); assay: cross-linking; BS3 (50, 150, 500 μM) with 10-15 μM protein in buffer R (50 mM Hepes-OH pH 7.5, 150 mM NaCl, 10% v/v glycerol), 37 °C, 35 min; with 0.8 mM EGTA or 0.8 mM EGTA/1.6 mM calcium chloride; analysed by 15% SDS-PAGE
[5] = target: the molecule itself; assay: as above

## CN1CCN(CCCN2c3ccccc3Sc3ccc(C(F)(F)F)cc32)CC1 [trifluoperazine]
[1]
  melting temperature (Tm): 62.2 ± 0.8 °C
[2]
  SmTAL3: 73.9 ± 0.1 °C

## CN(C)CCCN1c2ccccc2Sc2ccc(Cl)cc21 [chlorpromazine]
[1]
  melting temperature (Tm): 61.3 ± 0.3 °C
[2]
  SmTAL3: 74.1 ± 0.1 °C

## NCCCCCCNS(=O)(=O)c1cccc2c(Cl)cccc12 [W7, N-(6-Aminohexyl)-5-chloro-1-naphthalenesulfonamide hydrochloride]
[3]
  limited proteolysis protection (trypsin, chymotrypsin): Of the drugs tested, only W7 protected SmTAL2 from limited proteolysis by trypsin or chymotrypsin
[1]
  melting temperature (Tm): 61.5 ± 0.3 °C
[2]
  SmTAL3: 74.3 ± 0.1 °C

## SmTAL3 (Schistosoma mansoni tegumental allergen-like protein 3) (natural protein)
[4]
  stoichiometry N: 2

## O=C(C1CCCCC1)N1CC(=O)N2CCc3ccccc3C2C1 (centres unmarked) [praziquantel]
[1]
  melting temperature (Tm): 61.7 ± 0.2 °C

B1: SmTAL1 (Schistosoma mansoni tegumental allergen-like protein 1) (natural protein, UniProt P14202 1-190, looked up)
chain: MATETKLSQMEEFIRAFLEIDADSNEMIDKQELIKYCQKYRLDMKLIDPWIARFDTDKDNKISIEEFCRGFGLKVSEIRREKDELKKERDGKFPKLPPNIEIIAATMSKTKQYEICCQFKEYVDNTSRTGNDMREVANKMKSLLDNTYGRVWQVVLLTGSYWMNFSHEPFLSIQFKYNNYVCLAWRTPSQ
notes: SmTAL1 (Sm22.6), Schistosoma mansoni, GenBank AAA29922.1, Smp_045200.1; also called Sm22.6; source: E. coli, GST-fusion isolated on glutathione-agarose, cleaved with thrombin, free GST removed on Q-Sepharose; not shown: GST, N-terminal, cleaved
[5]
  stoichiometry N: 2

B2: SmTAL2 (Schistosoma mansoni tegumental allergen-like protein 2) (natural protein, UniProt P32070 1-184, looked up)
chain: MDSPMEKFIQTYLTLLRDGDETVETSKLSESCRKEKLDMKQVNEWIALFDVDKDQKITFEEFCRGLGLKQNEMRIERNHIKTVQSGREQSLPEGVSIIASTMPKPKQVEVTQLFKDIYNEVKKDPDMNKVVKTFKSELERRYGRVWQVNAVTHSYWASFSHEPFQSIQFQYDNKIILAWRTPSN
notes: SmTAL2 (Sm21.7), Schistosoma mansoni, GenBank AAA74050.1, Smp_086480.1; also called Sm21.7; source: E. coli, GST-fusion isolated on glutathione-agarose, cleaved with thrombin, free GST removed on Q-Sepharose; not shown: GST, N-terminal, cleaved
[5]
  stoichiometry N: 2
